# From patent US5565426A, “Peptide compounds active in cell adhesion processes” (Adir et Compagnie, priority 1992, dated 1996)
# Non-standard residues stand in square brackets, D forms with d. Residues, ends and D or L forms follow the SMILES beside them. GABA = NCCCC(=O)O
# Columns and labels:
# [1] = tested on: mice (CD-1), collagen/adrenaline-induced thromboembolism; experiment: Thromboembolism in mice (collagen + adrenaline i.v.); format: in vivo; details: for dose from which formation of microthrombi in the lungs is inhibited: histological examination of lungs; for dose that protects half of the mice: i.v., injected with collagen + adrenaline, death or paralysis at 15 min
# Procedure: Male mice (CD-1) weighing from 28 to 32 g are used for these experiments. The animals are maintained at from 26° to 28° C. for the 30 minutes preceding the experiment. A combination of collagen (150 μg/ml) and adrenaline (100 μmol/l) causes the mice to die by paralysis. Each mouse receives 0.1 ml of that combination, which gives a dose of 1.8 μg of adrenaline and 15 μg of collagen per mouse. The incidence of death or paralysis is observed 15 minutes after the intravenous injection (i.v.) of the combination (adrenaline+collagen) into the caudal vein. The peptides are injected at the same time as the combination of agonists. In the case of the tests relating to the duration of action, the mice are pre-treated with the peptides i.v. in a volume of 0.1 ml. A histological examination of the lungs is carried out in order to visualise the presence of microthrombi in the vessels of the microcirculation, which are attributable to the adrenaline-collagen combination. At the end of the experiment, the lungs are rapidly removed, fixed in formalin and then enclosed in paraffin. 5 μm sections are made and coloured with haematoxylin/eosin. The sections are examined and the presence or absence of microthrombi is noted. The X^2 test (Fischer) is used to determine whether there is a significant difference between the effects in mice that have received the peptides and those that have not.
# [2] = tested on: formation of a blood clot in the mesenteric artery of the rat; experiment: Experimental thrombosis in the mesenteric artery of the rat; format: in vivo; details: venous infusion for 5 min
# Procedure: The experiments were carried out on male rats (250 to 400 g). The animals are anaesthetised with pentobarbitone (50 mg/kg i.p.). A catheter is installed in the jugular vein in order to permit i.v. injections.
# The preparation of the mesenteric artery and the induction of thrombosis are carried out in accordance with the method described by Bourgain et al. Adv. Exp. Med. Biol., 180, 635-649, (1984). A longitudinal incision is made in the abdomen and part of the intestine is exposed. Using a binocular magnifying device, a branch of the mesenteric artery from 200 to 500 μm in diameter is prepared. The adjacent vein is separated and the adipose tissues are removed; a 2 mm segment of artery is thus prepared. The animal is then installed under a microscope and the segment of the mesenteric artery is perfused with physiological solution (37° C.) at 5 ml/min. The segment can be observed for several hours. The images are recorded using a video camera and a magnetoscope.
# After installation and stabilisation of the preparation, a platinum electrode is placed on each side of the arteriole wall using a micromanipulator. An endothelial lesion is then induced by applying for 60 seconds an electric current of 40 μA, the current being reversed every 5 seconds. […] Normally, no thrombus formation is observed on applying the electric current.
# The formation of a clot is then induced by perfusion with ADP (adenosine diphosphate) for 2 minutes. The ADP is used at a final molarity of 300 μM. The clot forms and then, after 2 to 5 minutes, disappears by embolisation. The vessel then re-assumes a normal state; there is no spontaneous formation of a clot.
# The effect of the products on the formation of thrombi was tested by treating the animals by venous infusion for 5 minutes. The infusion starts […] minute before perfusion with ADP.
# The recorded images are analysed and the size of the clots is expressed in arbitrary surface values. The measurements are carried out at determined times during and after the perfusion of ADP. A comparison can therefore be made of the size of the clots in the control state and after the infusion of the product.
smiles,measurement,setting,value
"N=C(N)NCCC[C@H](NC(=O)CCCN)C(=O)NCC(=O)N[C@@H](CC(=O)O)C(=O)N[C@@H](Cc1c[nH]c2ccccc12)C(=O)O [Example 11, H2 N--(CH2)3 --CO--Arg--Gly--Asp--Trp--OH] (H-[GABA]RGDW-OH)",dose from which formation of microthrombi in the lungs is inhibited,[1],≥ 0.03 mg/mouse
same,dose that protects half of the mice,[1],0.03 mg/mouse
same,times more active than the reference substance (RGDW),[1]; ratio of doses protecting half of the mice,10 times
"NCCCC[C@H](NC(=O)CCCN)C(=O)NCC(=O)N[C@@H](CC(=O)O)C(=O)N[C@@H](Cc1c[nH]c2ccccc12)C(=O)O [Example 12, H2 N--(CH2)3 --CO--Lys--Gly--Asp--Trp--OH] (H-[GABA]KGDW-OH)",Percentage inhibition of the formation of a blood clot in the mesenteric artery of the rat,[2]; 2 mg/kg/min,17%
same,Percentage inhibition of the formation of a blood clot in the mesenteric artery of the rat,[2]; 5 mg/kg/min,33%
same,Percentage inhibition of the formation of a blood clot in the mesenteric artery of the rat,[2]; 10 mg/kg/min,56%
"N=C(N)NCCC[C@H](N)C(=O)NCC(=O)N[C@@H](CC(=O)O)C(=O)N[C@@H](Cc1c[nH]c2ccccc12)C(=O)O [H--Arg--Gly--Asp--Trp--OH, reference compound] (H-RGDW-OH)",Percentage inhibition of the formation of a blood clot in the mesenteric artery of the rat,[2]; 10 mg/kg/min,36%
same,duration of action,"[1]; dose of 1 mg, i.v. pre-treatment",less than 5 minutes
same,dose from which formation of microthrombi in the lungs is inhibited,[1],≥ 1 mg/mouse
same,dose that protects half of the mice,[1],0.3 mg/mouse
